Here are results for 2 compounds from ChEMBL document CHEMBL4196183, “Discovery of New Allosteric Modulators of the Urotensinergic System through Substitution of the Urotensin II-Related Peptide (URP) Phenylalanine Residue” (J Med Chem, 2018).

Assay [1] concerns the target T1, Urotensin-2 receptor (Homo sapiens, UniProt Q9UKP6).
T1 sequence (Q9UKP6 whole entry): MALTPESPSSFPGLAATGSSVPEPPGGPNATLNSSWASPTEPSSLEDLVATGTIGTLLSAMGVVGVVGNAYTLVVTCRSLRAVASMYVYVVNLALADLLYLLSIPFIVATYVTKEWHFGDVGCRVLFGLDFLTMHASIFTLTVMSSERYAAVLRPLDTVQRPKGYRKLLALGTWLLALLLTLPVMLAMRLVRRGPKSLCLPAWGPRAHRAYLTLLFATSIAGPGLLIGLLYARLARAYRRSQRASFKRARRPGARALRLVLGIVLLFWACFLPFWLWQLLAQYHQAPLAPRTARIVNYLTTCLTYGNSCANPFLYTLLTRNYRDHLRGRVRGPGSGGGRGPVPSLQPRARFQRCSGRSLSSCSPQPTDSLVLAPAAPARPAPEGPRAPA
Briefly: Agonist activity at human UT receptor expressed in HEK293 cells co-expressing beta-arrestin1-polycistronic BRET biosensor assessed as induction of beta-arrestin1 recruitment measured for 5 mins by luminescence detection based BRET assay. It is filed as functional, cell-based. On the technique in general: In BRET a luciferase serves as donor, and the signal depends on an acceptor being close.

Assay [2] concerns the target T2, Urotensin-2 receptor (Homo sapiens) (UniProt Q9UKP6).
T2 sequence (whole entry): T1 sequence (Q9UKP6 whole entry)
Briefly: Agonist activity at human UT receptor expressed in HEK293 cells co-expressing G12-polycistronic BRET biosensor assessed as induction of G12 activation measured for 5 mins by luminescence detection based BRET assay relative to 10 uM URP. It is filed as functional, cell-based.

In assay [3] the target is T2, Urotensin-2 receptor (Homo sapiens). Kind of assay: Bias factor, ratio of deltalog(Tau/KA) for agonist activity at human UT receptor expressed in HEK293 cells co-expressing G12-polycistronic BRET biosensor assessed as induction of G12 activation by luminescence detection based BRET assay to deltalog(Tau/KA) for agonist activity at human UT receptor expressed in HEK293 cells co-expressing Gq-polycistronic BRET biosensor assessed as induction of Gq activation by luminescence detection based BRET assay. It is filed as functional, cell-based.

Assay [4] has the same target. Briefly: Bias factor, ratio of deltalog(Tau/KA) for agonist activity at human UT receptor expressed in HEK293 cells co-expressing beta-arrestin1-polycistronic BRET biosensor assessed as induction of beta-arrestin1 recruitment by luminescence detection based BRET assay to deltalog(Tau/KA) for agonist activity at human UT receptor expressed in HEK293 cells co-expressing Gq-polycistronic BRET biosensor assessed as induction of Gq activation by luminescence detection based BRET assay. It is filed as functional, cell-based.

Assay [5] has the same target. Briefly: Bias factor, ratio of deltalog(Tau/KA) for agonist activity at human UT receptor expressed in HEK293 cells co-expressing G12-polycistronic BRET biosensor assessed as induction of G12 activation by luminescence detection based BRET assay to deltalog(Tau/KA) for agonist activity at human UT receptor expressed in HEK293 cells co-expressing beta-arrestin1-polycistronic BRET biosensor assessed as induction of beta-arrestin1 recruitment by luminescence detection based BRET assay. It is filed as functional, cell-based.

The target of assay [6] is T3, Urotensin-2 receptor (Rattus norvegicus, UniProt P49684).
T3 sequence (P49684 whole entry): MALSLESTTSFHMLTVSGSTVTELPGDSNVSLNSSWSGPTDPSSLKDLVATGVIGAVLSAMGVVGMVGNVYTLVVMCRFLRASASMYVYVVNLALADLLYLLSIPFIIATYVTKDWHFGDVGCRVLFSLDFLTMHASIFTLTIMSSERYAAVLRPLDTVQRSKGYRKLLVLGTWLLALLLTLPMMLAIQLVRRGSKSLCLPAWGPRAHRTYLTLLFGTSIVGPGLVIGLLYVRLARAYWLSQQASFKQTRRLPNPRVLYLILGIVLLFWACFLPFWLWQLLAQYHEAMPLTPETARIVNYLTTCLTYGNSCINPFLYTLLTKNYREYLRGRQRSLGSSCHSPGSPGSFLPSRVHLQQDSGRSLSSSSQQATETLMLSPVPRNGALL
Briefly: Agonist activity at UT receptor in Sprague-Dawley rat thoracic aortic ring assessed as induction of contraction. It is filed as functional.

In assay [7] the target is T4, Urotensin-2 receptor (Rattus norvegicus) (UniProt P49684).
T4 sequence (whole entry): T3 sequence (P49684 whole entry)
Kind of assay: Antagonist activity at UT receptor in Sprague-Dawley rat thoracic aortic ring assessed as reduction in urotensin-2-induced contraction by measuring Emax for human urotensin-2-induced contraction at 1 x 10^-7M uM pre-incubated for 30 mins before urotensin-2 stimulation (reference value: 101 +/- 4%). It is filed as functional.

For assay [8], the target named is T4, Urotensin-2 receptor (Rattus norvegicus). Briefly: Antagonist activity at UT receptor in Sprague-Dawley rat thoracic aortic ring assessed as reduction in URP-induced contraction by measuring Emax for human urotensin-2-induced contraction at 3 x 10^-10M pre-incubated for 30 mins before urotensin-2 stimulation relative to KCl-induced contraction (reference value: 107 +/- 3%). It is filed as functional.

The target is the same in assay [9]. Briefly: Antagonist activity at UT receptor in Sprague-Dawley rat thoracic aortic ring assessed as reduction in URP-induced contraction by measuring Emax for human urotensin-2-induced contraction at 3 x 10^-9M pre-incubated for 30 mins before urotensin-2 stimulation relative to KCl-induced contraction (reference value: 107 +/- 3%). It is filed as functional.
Assay [10] has the same target. Briefly: Antagonist activity at UT receptor in Sprague-Dawley rat thoracic aortic ring assessed as reduction in urotensin-2-induced contraction by measuring Emax for human urotensin-2-induced contraction at 1 x 10^-8M uM pre-incubated for 30 mins before urotensin-2 stimulation (reference value: 101 +/- 4%). It is filed as functional.
Assay [11] has the same target. Briefly: Antagonist activity at UT receptor in Sprague-Dawley rat thoracic aortic ring assessed as reduction in URP-induced contraction by measuring Emax for human urotensin-2-induced contraction at 1 x 10^-7M pre-incubated for 30 mins before urotensin-2 stimulation relative to KCl-induced contraction (reference value: 107 +/- 3%). It is filed as functional.
Assay [12] has the same target. Briefly: Antagonist activity at UT receptor in Sprague-Dawley rat thoracic aortic ring assessed as reduction in URP-induced contraction by measuring Emax for human urotensin-2-induced contraction at 1 x 10^-8M pre-incubated for 30 mins before urotensin-2 stimulation relative to KCl-induced contraction (reference value: 107 +/- 3%). It is filed as functional.

In general, EC50 refers to the midpoint of the concentration-response curve. One may read the Emax as the greatest response seen or fitted, relative to the assay's reference.

For the compound `CC(C)[C@H](NC(=O)[C@@H]1CSSC[C@H](NC(=O)[C@H](C)N)C(=O)N[C@@H](Cc2ccc(C#Cc3ccccc3)cc2)C(=O)N[C@@H](Cc2c[nH]c3ccccc23)C(=O)N[C@@H](CCCCN)C(=O)N[C@@H](Cc2ccc(O)cc2)C(=O)N1)C(=O)O`, the figures for the EC50 at Urotensin-2 receptor [1] and on Urotensin-2 receptor [6] were 759 nM and 32.4 nM, respectively. Also, the maximal response (Emax) in assay [2] amounted to 78%. Further, the fold change (FC) worked out at 1.8 in assay [3], 1.1 in [4] and 1.6 in assay [5].
`CC(C)[C@H](NC(=O)[C@@H]1CSSC[C@H](NC(=O)[C@H](C)N)C(=O)N[C@@H](Cc2ccc(-c3ccccc3)cc2)C(=O)N[C@@H](Cc2c[nH]c3ccccc23)C(=O)N[C@@H](CCCCN)C(=O)N[C@@H](Cc2ccc(O)cc2)C(=O)N1)C(=O)O`: the EC50 is 603 nM on Urotensin-2 receptor [1] and 28.8 nM at Urotensin-2 receptor [6]. In addition, the Emax in assay [7] turned out to be 58%; in assay [8] it was 104%; in [2] it was 80%; in [9], 94%; in assay [10], 78%; in assay [11] it was 60%. Also, in assay [12], the Emax came out at 75%. Besides, the fold change (FC) in assay [3] came out at 1.4; in [4], 0.4; in [5], 3.9.
